Data set [1] relates to SNU-16 stomach tumor xenografts. Put plainly: Anti-tumor treatment of mice and tumor size/weight measurement. Type of data set: in vivo. The following applies: 3 weeks after treatment; cisplatin 5 mg/kg i.p. once per week x2, cetuximab 1.5 mg/kg i.p. twice per week x4; p<0.05, p<0.05, p<0.001 (linear ApoPep-1 group); p<0.05, p<0.01, p<0.001 (cyclic group).
Description: At 3 weeks after treatment (endpoint of experiments), tumor volumes were measured and tumors were isolated for the weight measurement.
SNU-16 stomach tumor-bearing mice that were analyzed for imaging signals after the first and second round of treatment were maintained for the measurement of tumor size. […] PBS, phosphate-buffered saline; CPT, cisplatin; CET, cetuximab; CPT+CET, cisplatin plus cetuximab.
Data set [2] in a line: Stability of peptides in the serum. Type of data set: in vitro ADME, mice. The conditions noted are these: mouse serum, 100 µg peptide in 50 µl PBS + 50 µl filtered serum, 37°C, up to 24 h, C18 reverse phase FPLC, absorbance 215 nm, peak identity by MALDI-TOF MS. Here is the method:
Peptide stability in the serum was examined as previously described. Blood from mice was collected and allowed to clot, and then serum was obtained by centrifugation at 4°C twice followed by filtration (0.22 µm pore). Peptide (100 µg in 50 µl of PBS) was incubated with 50 µl of filtered serum at 37°C for the indicated time period. The incubated samples were diluted 100-fold and fractionated by C18 reverse phase FPLC with linear gradient of acetonitrile (Vydac protein and peptide C18, 0.1% trifluoroacetate in water for equilibration, and 0.1% trifluoroacetate in acetonitrile for elution). To confirm the identity of the peak from the profiles of C18 reverse phase FPLC, each peak was collected, vacuum dried, and analyzed by mass spectrometry (MS) using an MALDI-TOF mass spectrometer (Life Technologies, Carlsbad, CA).
Figure 5 Stability of linear and cyclic ApoPep-1 in the serum. Linear and cyclic ApoPep-1 peptides were incubated with mouse serum at 37°C for the indicated time periods. (A) (B) Linear and cyclic form of ApoPpep-1 samples and mouse serum were fractionated by C18 reverse-phase FPLC. Y axis represents the absorbance unit at 215 nm. Each peptide peak was indicated by an arrow and separable from serum peaks. (C) (D) MS spectrum of the linear and cyclic peptide peak collected from 24 h FPLC fraction and synthetic linear and cyclic ApoPep-1.

The test system of data set [3] is SNU-16 stomach tumor xenografts. The data set can be described thus: In vivo NIR fluorescence imaging of tumor apoptosis. Set-up: species or system mice. The following applies: for fluorescence intensity at tumor site in cisplatin plus cetuximab group compared to cisplatin alone and cetuximab alone / fluorescence intensity at tumor site in treated groups compared to untreated control group: FPR675-labeled peptide 800 nmol/kg i.v., imaging at 90 min; for fluorescence intensity at tumor site in cisplatin plus cetuximab group compared to cisplatin alone and cetuximab alone: after first and second round, linear: p<0.05/p<0.05 vs cisplatin, p<0.01/not significant vs cetuximab, cyclic: p<0.01/p<0.01 vs cisplatin, p<0.001/p<0.01 vs cetuximab; for fluorescence intensity at tumor site in treated groups compared to untreated control group: groups treated with cisplatin, cetuximab, cisplatin plus cetuximab, after first or second round of treatment, n = 3; for background fluorescence signals in other organs, including the liver and lung: whole body NIR fluorescence images, 90 min after i.v. FPR675-labeled peptide. Here is the method:
Eight-week old female athymic (nu/nu) Balb/c mice were purchased from Orient laboratories (Seongnam, Korea) and were housed under specific-pathogen-free conditions with laboratory chow and water ad libitum. Stomach tumor xenografts were established by subcutaneously injecting 1 x 10^7 SNU-16 cells in 100 µl saline into the right flank. Tumors were allowed to reach 50–60 mm^3 of volume before randomization and initiation of treatment. […] Changes in tumor size were measured over three weeks. Diameters of tumor were measured with automatic caliper. Tumor volumes were calculated using the formula: volume = (length x width x height)/2, where length, width, and height means the longest dimension, shorter dimension parallel to the mouse body, and diameter of tumor perpendicular to the length and width, respectively. Tumor weights were measured after isolation of tumor mass.
In vivo NIR fluorescence imaging was performed after the first and second round of treatment. Each treatment group (n = 6) was divided into two subgroups (n = 3) for imaging with linear and cyclic form of ApoPep-1, respectively. Linear and cyclic form of FPR675–labeled ApoPep-1 (1.45 mg/kg and 1.54 mg/kg, respectively; equivalent to 800 nmol/kg for each peptide) was injected through the tail vein into mice. At 90 min after administration, mice were anesthetized and subjected to imaging. NIR fluorescence (typically, between 650 and 1100 nm) is favored for in vivo optical imaging because of its low tissue absorption and deep tissue penetration properties. The excitation/emission wavelength of the FPR675 dye used in this study was 675/698 nm. Images were taken using the eXplore Optix optical imaging system (ART Inc., Montreal, Canada). […] The acquisition time for a whole-body scanning was 15 min per mouse. Fluorescence intensity at region of interest (ROI) was measured using a analysis software provided by the manufacturer (ART Inc.).
Figure 2 Monitoring of tumor response by in vivo imaging of apoptosis. […] After the first and second round of treatment, linear or cyclic form of FPR675 NIR fluorescence dye-labeled ApoPep-1 was intravenously injected into mice. In vivo NIR fluorescence images were taken at 90 min after administration. (A) (B) Quantification of NIR fluorescence signal intensity of the region of interest (ROI) in groups injected with linear and cyclic ApoPep-1. Bars represent the signal intensity at ROI obtained from three individual mice (mean ± S.D.). Asterisks represent statistical significance compared to PBS. Asterisks on brackets represent significance in difference between the two groups. * p<0.05, ** p<0.01, and *** p<0.001 by one-way ANOVA (n = 3 per group). (C) (D) Representative NIR fluorescence images by the uptake of linear and cyclic ApoPep-1 to tumor were shown. Scale bars represent normalized fluorescence intensity. Circles represent the ROI.

Data set [4] concerns SNU16 human stomach cancer cell line. The data set can be described thus: In vitro binding of peptides to apoptotic cells (flow cytometry). Format: cell-based. The conditions noted are these: 10 µM FITC-conjugated peptide 4°C 1 h, or Alexa488-annexin V 15 min RT. Here is the method: SNU16 human stomach cancer cell line was purchased from KCLB (Seoul, Korea). […] After treatment, cells were incubated with 10 µM of fluorescein isothiocyanate (FITC)-conjugated linear or cyclic form of ApoPep-1 at 4°C for 1 h. As control, cells were stained with Alexa488-conjugated annexin V (Life technologies, Carlsbad, CA) for 15 min at RT. Percentages of fluorescent (peptide-bound or annexin V-bound) cells were measured by flow cytometry.
Figure 1 In vitro detection of apoptosis. […] Cells were harvested and incubated with FITC-labeled ApoPep-1 at 4°C for 1 h or with annexin V at room temperature for 15 min. Data represent percentages of apoptotic cells as measured by flow cytometry. (A-C) Percentages of apoptotic cells detected by linear form of ApoPep-1, cyclic form of ApoPep-1, and annexin V, respectively. PBS, phosphate-buffered saline; CPT, cisplatin; CET, cetuximab; CPT+CET, cisplatin plus cetuximab.

Entries after “also recorded” stand apart in the source; their conditions may differ. Bridges are numbered along the chain shown (N, C = ends). Where no end group is shown, it is not given here.

As to `N.N.[Cl][Pt][Cl]` [cisplatin], in data set [1], the “tumor volumes compared to untreated control” value was “reduced tumor volumes”.
For “CQRPPR [linear ApoPep-1, Linear (CQRPPR) form of ApoPep-1, histone H1-targeting peptide; used FITC-conjugated or FPR675-labeled]”, in data set [2] (listed as linear form of ApoPep-1), the “amount of peptide remaining in the serum, as calculated by peak area” value is given as “not significantly changed up to 24 h; also recorded: stable in the presence of serum until 24 h”. In data set [3], the “fluorescence intensity at tumor site in cisplatin plus cetuximab group compared to cisplatin alone and cetuximab alone” value was “higher”; the “fluorescence intensity at tumor site in treated groups compared to untreated control group” value is “significantly higher”; the “background fluorescence signals in other organs, including the liver and lung” value is on record as “Little background fluorescence signals”.
On to “CQRPPRC (disulfide 1-7 (inferred)) [cyclic ApoPep-1, cyclic (CQRPPRC, disulfide bonding at amino and carboxy termini) form of ApoPep-1; used FITC-conjugated or FPR675-labeled]”, for which, in data set [2] (listed as cyclic form of ApoPep-1), the “amount of peptide remaining in the serum, as calculated by peak area” value was “not significantly changed up to 24 h; also recorded: stable in the presence of serum until 24 h”. In data set [3], the “fluorescence intensity at tumor site in cisplatin plus cetuximab group compared to cisplatin alone and cetuximab alone” value is “remarkably higher”; the “fluorescence intensity at tumor site in treated groups compared to untreated control group” value was “significantly higher”; the “background fluorescence signals in other organs, including the liver and lung” value is recorded as “Little background fluorescence signals”.

B1: annexin V: Alexa488-conjugated annexin V, apoptosis probe that binds to phosphatidylserine (protein, UniProt P08758 2-320, looked up)
Annexin A5: AQVLRGTVTDFPGFDERADAETLRKAMKGLGTDEESILTLLTSRSNAQRQEISAAFKTLFGRDLLDDLKSELTGKFEKLIVALMKPSRLYDAYELKHALKGAGTNEKVLTEIIASRTPEELRAIKQVYEEEYGSSLEDDVVGDTSGYYQRMLVVLLQANRDPDAGIDEAQVEQDAQALFQAGELKWGTDEEKFITIFGTRSVSHLRKVFDKYMTISGFQIEETIDRETSGNLEQLLLAVVKSIRSIPAYLAETLYYAMKGAGTDDHTLIRVMVSRSEIDLFNIRKEFRKNFATSLYSMIKGDTSGDYKKALLLLCGEDD
modifications: Alexa488 conjugate
On to B1, for which the “percentages of apoptotic cells detected by the probe after treatment with cetuximab” value in data set [4] (cetuximab 200 µg/ml 24 h) is recorded as about 40%. Moreover, the “percentages of apoptotic cells detected by the probe after treatment with cisplatin” value in data set [4] (cisplatin 300 ng/ml 24 h) is given as “approximately 43%”. Besides, in data set [4] (cisplatin 300 ng/ml plus cetuximab 200 µg/ml 24 h), the “percentages of apoptotic cells detected by the probe after treatment with cisplatin plus cetuximab” value is on record as about 45%.

The record behind these values is article PMC4065102 (PLoS ONE, 2014).
